This is an account of results in patent US6562371B1, “Liposomes” (Terumo Kabushiki Kaisha, priority 1998, dated 2003).

The subject of the experiment is Anti-Thy-1 antibody nephritis rats. As to the kind of experiment: Pharmacological effect: total protein content in urine. Particulars: administered once i.v. on the fifth day after anti-Thy-1 antibody, urine collected on the tenth day. Type of experiment: in vivo, rat. On the procedure: Anti-Thy-1 antibody nephritis rats were prepared by intravenously administering an anti-Thy-1 antibody solution through the caudal vein of each CD (SD) male rat. On the fifth day after administration of the anti-Thy-1 antibody, the liposome dispersion liquid obtained in Preparation Example 15 (1 mg as prednisolone phosphate sodium) was administered by intravenous injection. On the tenth day after administration of the anti-Thy-1 antibody, urine was collected to measure the total protein content.
For the sake of comparison, the preparation of Comparative Example 1 (a liposome dispersion liquid having no included drug) or physiological saline was administered by the same method, and urine was collected on the tenth day after administration of the anti-Thy-1 antibody to measure the total protein content.
Also, a prednisolone phosphate sodium solution (1 mg as prednisolone phosphate sodium) which was not made into liposomes was administered once on the fifth day after administration of the anti-Thy-1 antibody, or five times (once a day for 5 days) started on the fifth day after administration of the anti-Thy-1 antibody, and urine was collected on the tenth day after administration of the anti-Thy-1 antibody to measure the total protein content.
Urine was also collected from un-treated normal rat to measure the total protein content.

As for prednisolone phosphate sodium, the “effect on excretion of protein into urine (total protein content)” value was “no effect was found”.
